pIC50: −log10 of the molar value.

The test addresses T1, Prostaglandin G/H synthase 1 (Ovis aries, UniProt P05979).
T1 sequence (P05979 whole entry): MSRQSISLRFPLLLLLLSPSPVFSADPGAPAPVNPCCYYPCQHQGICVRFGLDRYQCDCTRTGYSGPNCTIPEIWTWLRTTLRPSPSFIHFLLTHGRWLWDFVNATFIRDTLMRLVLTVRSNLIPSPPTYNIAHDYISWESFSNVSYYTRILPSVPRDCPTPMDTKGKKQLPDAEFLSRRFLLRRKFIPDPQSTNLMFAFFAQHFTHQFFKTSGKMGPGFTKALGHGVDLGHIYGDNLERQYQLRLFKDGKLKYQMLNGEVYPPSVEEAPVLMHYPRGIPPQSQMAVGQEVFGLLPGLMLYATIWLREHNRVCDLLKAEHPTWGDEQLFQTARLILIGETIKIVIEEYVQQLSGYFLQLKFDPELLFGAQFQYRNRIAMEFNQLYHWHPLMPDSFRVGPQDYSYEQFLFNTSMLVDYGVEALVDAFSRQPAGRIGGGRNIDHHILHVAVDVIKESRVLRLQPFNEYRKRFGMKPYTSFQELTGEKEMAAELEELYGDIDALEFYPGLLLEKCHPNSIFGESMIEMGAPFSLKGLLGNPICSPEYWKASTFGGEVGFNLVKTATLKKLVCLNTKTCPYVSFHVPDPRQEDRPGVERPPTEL
Description: Inhibition of ovine COX1 by chemiluminescent enzyme assay
In general, pIC50 refers to −log10 of the IC50, conventionally taken in molar units. A low value points to a high IC50. `CS(=O)(=O)c1ccc(-c2cc(C(=O)O)c3ccc4ccccc4c3n2)cc1` gave a pIC50 of 4.75.
In the case of `CS(=O)(=O)c1ccc(-c2cc(C(=O)O)c3ccccc3n2)cc1` it was 4.87; in that of `Cc1cccc2c(C(=O)O)cc(-c3ccc(S(C)(=O)=O)cc3)nc12`, 4.85; in that of `Cc1ccc2c(C(=O)O)cc(-c3ccc(S(C)(=O)=O)cc3)nc2c1C`, 4.84.
As to `CS(=O)(=O)c1ccc(-c2cc(C(=O)O)c3cccc(-c4ccccc4)c3n2)cc1`, the pIC50 is 4.83.
In the case of `CS(=O)(=O)c1ccc(-c2cc(C(=O)O)c3ccc4c(c3n2)CCCC4)cc1` it was 4.66.
